How the values were obtained:
[1] = Polarity index (interfacial tension of the oil with respect to water); format: physicochemical; conditions: for polarity index mN/m: Table 2; for polarity index: Table 1, printed under the ingredient name
Text: The term “polarity index” is a parameter which is known to the person skilled in the art. The polarity of an oil is defined as the polarity index (interfacial tension) of the oil with respect to water. The interfacial tension, i. e. the polarity index, can be particularly determined using a ring tensiometer (e.g., Krüss K 10), which measures the interfacial tension in mN/m in analogy to the ASTM method D971-99a (2004).

[2] = Particle size by laser diffraction (Malvern Mastersizer 2000) and/or Coulter Delsa Nano S; format: physicochemical
Text: The term ‘mean particle size’ as used herein refers to the mean number-based particle size distribution Dn50 (also known as Dn0.5) as determined by laser diffraction e.g. with a Malvern Mastersizer 2000 (ISO 13320:2009).
All particles sizes have been determined by laser diffraction with a Malvern Mastersizer 2000 according to the method as outlined in ISO 13320:2009 and/or a Coulter Delsa Nano S (dynamic laser scattering).

Compound: Isocetyl Stearate
- polarity index mN/m [1]: 36.2 mN/m

Compound: CCCCCCCCCCCCCC(C)C [Isohexadecane]
- polarity index [1]: (polarity index 43.8 mN/m)
- polarity index mN/m [1]: 43.8 mN/m

Compound: CC(C)OC(=O)CCCCC(=O)OC(C)C [Diiso propyl adipate, Diisopropyl Adipate]
- polarity index [1]: 11.6 mN/m)
- polarity index mN/m [1]: 11.6 mN/m

Compound: c1ccc2oc(-c3ccc(-c4nc5ccccc5o4)cc3)nc2c1 [DBO-400 (A), 1,4-di(benzoxazol-2′-yl)benzene]
- Particle size Dn50 [2]: 380 nm

Source: patent US11931444B2, “Topical composition” (DSM IP Assets B.V., priority 2018, dated 2024)
